For experiment [1], the system named is 3T3L cells. The experiment in a line: Adiponectin ELISA on supernatant medium of primed 3T3L cells. In kind it is cell-based, mouse. The note with it: 10 μg/ml peptide, versus no insulin control. How it is done: 3T3L cells were cultured in T75 culture flasks, in expansion medium (Millipore Corporation), and stored in a 5% CO2 humidified incubator at 37° C. Media was changed every two days until the cells reached 80% confluency. Cells were subcultured in a 96 well plate with a seeding density of 3×10^4 cells per cm^2.
Once cells had just reached confluency, expansion media was replaced with 0.5 mL of Adipogenic Induction Media per well containing 5% serum that had been screened for an ability to maintain stem cells in an undifferentiated state (LifeTechnologies). Cells were incubated for 48 hours at 37° C., 5% CO2. The Adipogenic Induction Media contained DMEM (low glucose, Gibco) +5% serum (LifeSciences) with 0.5 mM IBMX solution, 1 μM Dexamethasone Solution, and 100 μM Indomethacin Solution (priming stimulus). After 48 hr the Adipogenic Induction media was replaced with new media containing 10 μg/ml insulin alone (positive control), or 10 μg/ml peptide (experimental conditions). Negative controls were DMEM +5% serum only. Plates were incubated for two days prior to adiponectin ELISA analyses. Peptides were added daily at 10 μg/ml throughout the remainder of the experiment.
Adiponectin present in the supernatant medium was measured using a mouse adiponectin ELISA (Novex, LifeTechnologies). Briefly, supernatant medium was collected and diluted 1:100. One hundred microliters of the diluted supernatant medium was added to each well of the ELISA plate and incubated for one hour at 37° C. Wells were washed three times with 1× wash buffer and then 100 μl of antibody was added to each well and incubated for one hour at 37° C. The wells were then washed and incubated with 100 μl detector antibody for 1 hr at 37° C. The wells were washed five times with wash buffer and 100 μl of substrate solution was added to each well and incubated for twenty minutes in the dark. The reaction was then stopped by the addition of 100 μl stop solution. Plates were read at 450 nm and concentrations of adiponectin were derived from a standard curve included in the ELISA plate.
Insulin and the KSEVSK peptide (SEQ ID NO: 7) served as positive controls. […] In FIG. 7, values marked by asterisks represent significant changes relative to the no insulin control (i.e., the negative control) using a two-tailed Student's T test, p<0.05.

Experiment [2] concerns rat mesenchymal stem cells. Nature of the experiment: Assay 2: adipogenesis, Oil Red O staining (differentiation of pre-adipocytes into adipocytes). The format is cell-based. The note with it: for adipogenic activity in Assay 2: Assay 2, Oil Red O, concentration not given; for adipogenesis quantified by Oil Red O staining, fold change relative to the negative control: three weeks. How it is done:
Reagents: The Dexamethasone, IBMX, Insulin, and Oil Red O Solutions were the same as described above for assay 1. Indomethacin Solution contained 10 mM indomethacin in methanol.
Adipogenesis Maintenance Media was prepared as described above.
Adipogenesis Induction Media: To prepare 501.5 mL of Adipogenesis Induction Media, 50 μL of the 10 mM stock Dexamethasone Solution, 500 μL of the 0.5 M IBMX stock solution, 500 μL of the 10 mg/ml stock Insulin Solution, 5 ml of a 10 mM stock Indomethacin Solution, and 5 mL of a 100× stock solution of penicillin and streptomycin were added to 490 mL of mesenchymal stem cell expansion media.
Pre-adipocyte stem cells, bone marrow mesenchymal stem cells or fibroblasts such as dermal reticular and papillary fibroblasts were propagated using standard tissue culture methods. Cells were trypsinized to remove cells from the substratum, the trypsin was neutralized, and cells were counted using a hemocytometer. Cells were resuspended at 20,000 cells/ml in DMEM containing 10% calf serum. 1 mL of cell suspension per well was plated in a 48-well plate, with several wells left empty for blank well (blank control) staining.
Cells were incubated for 2 days overnight and had reached confluency at this point. Media was removed from each well and replaced with 0.5 ml Adipogenesis Induction Media. For negative control (no insulin, no peptide) wells, expansion medium only was used at this step and for subsequent media changes. For all media changes, media was replaced as gently as possible to avoid disturbing the monolayer.
Cells were incubated for 72 hours at 37° C., 5% CO2. Media was removed and replaced with 0.5 ml of Adipogenesis Maintenance Media containing either RHAMM antagonist peptides (experimental group) or insulin (concentration as in the Adipogenesis Induction Media and used as a positive control). Cells were incubated for at least 96 hours in this media at 37° C., 5% CO2. Media was replaced every 48 hours and experiments were terminated between seven and fourteen days after addition of insulin or peptides.
Media was removed and Oil Red O staining was performed as described above for assay 1.
Assay 1 is an assay that promotes transdifferentiation of fibroblasts into adipocytes, whereas Assay 2 promotes differentiation of multi-potential mesenchymal progenitor cells into adipocytes. Immortalized rat bone marrow mesenchymal stem cells were used for both assays. These cells contain cells of different lineages, including fibroblasts, pre-adipocytes, pre-chondrocytes and pre-osteoblasts. Thus, Assay 1 was used to promote transdifferentiation of fibroblast lineages into adipocytes and Assay 2 was used to promote differentiation of the pre-adipocytes into adipocytes.
As described in Example 1 above, the priming stimulus for Assay 1 includes IBMX (3-isobutyl-1-methylxanthine) and dexamethasone, and then insulin as the final adipogenic stimulus. The priming stimulus for assay 2 includes IBMX, dexamethasone and indomethacin, and then insulin as the final adipogenic stimulus.
Adipogenesis was quantified by Oil Red O staining. The peptide was tested at concentrations of 5 and 50 μg/ml over a period of three weeks. Cells were plated in 48-well culture plates, and the purity of the peptides was >95%. All data are presented as the fold change relative to the negative control (Ctr(−))±standard error. The KSEVSK 6-mer (SEQ ID NO: 7) was used as a positive control.

Experiment [3] has as its system mammary fat pads of aged female rats. The experiment in a line: In vivo adipogenesis in mammary fat pads of aged female rats (microCT). Further details: species or system rat. Particulars: eight-month-old female rats, 100 μg peptide in 100 μl collagen gel, 7 days, versus collagen only. The procedure:
Peptides were also tested for their ability to stimulate adipogenesis in mammary fat pads of aged (8 month old) female rats in vivo. Mammary fat pads are rich in adipocyte progenitor cells.
Eight-month-old female Sprague Dawley rats (retired breeders) were injected with 100 μl collagen gel (Vitrogen) containing 100 μg peptide into the fourth right mammary fat pad, as depicted in FIG. 10. […] The collagen and peptides were injected at the top of the ROI nearest the nipple. The collagen and peptide diffuse into the fat pad following injection and active peptides target RHAMM-positive progenitor cells present in the fat pad. Collagen alone was injected into the fourth left mammary fat pad as a negative control.
Following injection of the collagen and peptide or collagen alone, animals were maintained on rat chow and water for 7 days and then euthanized. Micro-computed tomography (microCT) imaging of the […] was performed on animals using a Locus Ultra scanner (GE Healthcare, London, ON, Canada). The animals were imaged ex vivo with an X-ray tube voltage of 80 kV and a tube current of 55 mA. Nine hundred projections of data were acquired at an angular increment of 0.4 degrees around the rat in an exposure time of 16 ms. The data were then reconstructed into a 3D volume image with a voxel size of 154 μm. The subcutaneous mammary fat measured in 10×5×3 mm rectangular area (the region of interest (ROI)) below the nipple, avoiding measurement of underlying visceral fat (see the region labeled “fat pad” in FIG. 11). The amount of fat in the ROI was calculated as mass (mg) per ROI.

Turning to KLKDENSQLK (listed as Homo sapiens), the “adipogenic activity in the adiponectin assay (adiponectin secretion)” value (shortened to “adipogenic activity … (adiponectin secretion)”) in experiment [1] is reported as “exhibited activity”. In addition, the “adipogenic activity in Assay 2” value in experiment [2] was “exhibited activity”. In addition, the “adipogenesis quantified by Oil Red O staining, fold change relative to the negative control” value is reported as “significant increase in adipogenesis” in experiment [2] (Assay 2, peptide 5 μg/ml) and “significant increase in adipogenesis” in experiment [2] (Assay 2, peptide 50 μg/ml). Moreover, the “adipogenesis in vivo in mammary fat pads” value in experiment [3] is “exhibited activity”.

For “KLKDENSQLR (listed as Erinaceus europaeus)”, in experiment [1], the “adipogenic activity … (adiponectin secretion)” value is given as “not subsequently shown to be adipogenic”. In addition, the “adipogenic activity in Assay 2” value in experiment [2] is reported as “promising results”. Besides, the “adipogenesis in vivo in mammary fat pads” value in experiment [3] is “not subsequently shown to be adipogenic”.

For “KSEVSK (listed as Homo sapiens) [reference compound]”, in experiment [2] (Assay 2), the “specific activity among the 9-mer, 7-mer and 6-mer fragments” value was “highest specific activity”. In addition, the “adipogenic activity in Assay 2” value in experiment [2] was “exhibit adipogenic activity”. Moreover, in experiment [3], the “adipogenesis in vivo in mammary fat pads” value was “mammary fat pad enlargement”.

For the substance “KTRAHHV (listed as Paenibacillus polymyxa)”, the entries for the “adipogenic activity … (adiponectin secretion)” value in experiment [1] and in experiment [1] (listed as KTRASHHV) were “lack an ability to promote adipogenesis” and “did not exhibit adipogenic activity”, respectively. Besides, the “adipogenic activity in Assay 2” value in experiment [2] is “ablated adipogenic activity”. For the same substance, the “adipogenesis in vivo in mammary fat pads” value in experiment [3] was “induce adipogenesis in vivo”; in experiment [3] (listed as KTRASHHV) it was “able to induce adipogenesis in vivo”.

These data come from US10844102B2, “Peptides, compositions, and methods for stimulating subcutaneous adipogenesis” (The Regents of the University of California, priority 2014, dated 2020).
